Test: Solubility in water of the isolated solid form
Format: physicochemical
Conditions: solid form obtained by the ethanol precipitation process

Which “solubility of the solid form” value does the source give for “(4RS)-[4-carboxy-5,8,11-tris(carboxymethyl)-1-phenyl-2-oxa-5,8,11-triazatridecan-13-oato(5-)] calciate(3-) trisodium [Ca-BOPTA trisodium salt]” here?
Its value is “soluble in water”.

From patent US11667601B2, “Calcium BOPTA complex” (BRACCO IMAGING S.P.A., priority 2019, dated 2023)
